# Measured values reported in patent publication US20200268768A1, “CENICRIVIROC COMBINATION THERAPY FOR THE TREATMENT OF FIBROSIS” (Tobira Therapeutics, Inc., priority 2015, published 2020).
# Where “and” joins values, the source holds several entries; their conditions need not be identical. Equal entries are not always repeated. Entries after “also recorded” stand apart in the source; their conditions may differ.
# How the values were obtained:
# [1] = test system: STAM mouse model of Non-alcoholic Steatohepatitis; test: STAM mouse model of NASH, anti-NASH/fibrosis effects at week 9; format: in vivo, mice; design: key to Hepatocyte ballooning score 0, number of mice / Hepatocyte ballooning score 1, number of mice: 0: None; 1: Few balloon cells; 2: Many cells/prominent ballooning; TNF-a mRNA expression level / MCP-1 mRNA expression level / Collagen Type 1 mRNA expression level / TIMP-1 mRNA expression level: scale not given here; conditions: for Collagen Type 1 mRNA expression level / MCP-1 mRNA expression level / TIMP-1 mRNA expression level / TNF-a mRNA expression level: liver, quantitative RT-PCR; for Collagen Type 1 mRNA expression level / MCP-1 mRNA expression level / TIMP-1 mRNA expression level / TNF-a mRNA expression level / Body weight / F4/80-positive area (inflammation area) / F4/80 and CD206-positive cells / F4/80 and CDE 16/32-positive cells / Liver hydroxyproline / Liver triglyceride / Liver weight / Liver-to-body weight ratio / M1/M2 ratio / NAFLD Activity Score (NAS) / Oil red-positive area (fat deposition area) / Plasma ALT / Plasma MCP-1 / TUNEL-positive cells / Whole blood glucose / Sirius red-positive area (fibrosis area) / Modified Sirius red-positive rea: mean ± SD; for Sirius red-positive area (fibrosis area): perivascular space included; for Modified Sirius red-positive rea: perivascular space subtracted
# Protocol: NASH was induced in male mice by a single injection of 200 μg streptozotocin 2 days after birth (causing impaired glucose control), followed by a high fat diet from 4 weeks of age. […] Animals were sacrificed at 9 weeks of age, and biochemical, gene expression, and histologic evaluations of the liver were conducted. This in vivo efficacy study was performed to examine the effects of Cenicriviroc in the STAM™ mouse model of Non-alcoholic Steatohepatitis. […] [table]
# Mouse toxicity studies = format: in vivo; conditions: CVC doses up to 2000 mg/kg/day; no surgical procedures
# HIV-1 infected subjects = test: Study 202 safety and tolerability; format: in vivo, human; conditions: 115 subjects, CVC 100 mg and 200 mg for up to 48 weeks
# [2] = CVC-high 100 mg/kg/day oral, listed as Cenicriviroc
# [3] = CVC-low 20 mg/kg/day oral, listed as Cenicriviroc
smiles,measurement,setting,value
"CCCCOCCOc1ccc(-c2ccc3c(c2)C=C(C(=O)Nc2ccc([S@@+]([O-])Cc4cncn4CCC)cc2)CCCN3CC(C)C)cc1 [CVC, (S)-8-[4-(2-Butoxyethoxy)phenyl]-1-isobutyl-N-(4-{[(1-propyl-1H-imidazol-5-yl)methyl]sulfinyl}phenyl)-1,2,3,4-tetrahydro-1-benzazocine-5-carboxamide]",Decrease of collagen type 1 mRNA in whole liver lysates,"[1]; CVC 20 and 100 mg/kg/day, real-time RT-PCR",27-37%
same,Collagen Type 1 mRNA expression level,[1]; CVC-high 100 mg/kg/day oral,0.73±0.04
same,MCP-1 mRNA expression level,[1]; CVC-high 100 mg/kg/day oral,1.00±0.53
same,TIMP-1 mRNA expression level,[1]; CVC-high 100 mg/kg/day oral,0.80±0.20
same,TNF-a mRNA expression level,[1]; CVC-high 100 mg/kg/day oral,1.09±0.23
same,Collagen Type 1 mRNA expression level,[1]; [2],0.73 ± 0.04
same,MCP-1 mRNA expression level,[1]; [2],1.00 ± 0.53
same,TIMP-1 mRNA expression level,[1]; [2],0.80 ± 0.20
same,TNF-a mRNA expression level,[1]; [2],1.09 ± 0.23
same,Body weight,[1]; CVC-high 100 mg/kg/day oral,18.7 ± 0.9 g
same,F4/80-positive area (inflammation area),[1]; CVC-high 100 mg/kg/day oral,4.96±0.60%
same,F4/80 and CD206-positive cells,[1]; CVC-high 100 mg/kg/day oral,33.1±3.0%
same,F4/80 and CDE 16/32-positive cells,[1]; CVC-high 100 mg/kg/day oral,41.5±8.2%
same,Liver hydroxyproline,[1]; CVC-high 100 mg/kg/day oral,0.62±0.09 ug/mg total protein
same,Liver triglyceride,[1]; CVC-high 100 mg/kg/day oral,51.7±14.1 mg/g liver
same,Liver weight,[1]; CVC-high 100 mg/kg/day oral,1307 ± 119 mg
same,Liver-to-body weight ratio,[1]; CVC-high 100 mg/kg/day oral,7.0±0.8%
same,M1/M2 ratio,[1]; CVC-high 100 mg/kg/day oral,125.1±21.9%
same,NAFLD Activity Score (NAS),[1]; CVC-high 100 mg/kg/day oral,3.7±0.8
same,Oil red-positive area (fat deposition area),[1]; CVC-high 100 mg/kg/day oral,7.23±3.59%
same,Plasma ALT,[1]; CVC-high 100 mg/kg/day oral,51±13 U/L and 52±13 U/L
same,Plasma MCP-1,[1]; CVC-high 100 mg/kg/day oral,91 ± 14 pg/mL
same,TUNEL-positive cells,[1]; CVC-high 100 mg/kg/day oral,39.0±5.3%
same,Whole blood glucose,[1]; CVC-high 100 mg/kg/day oral,585 ± 91 mg/dL
same,Body weight,[1]; [2],18.7 ± 0.9 g
same,F4/80-positive area (inflammation area),[1]; [2],4.96 ± 0.60%
same,F4/80 and CD206-positive cells,[1]; [2],33.1 ± 3.0%
same,F4/80 and CDE 16/32-positive cells,[1]; [2],41.5 ± 8.2%
same,Liver hydroxyproline,[1]; [2],0.62 ± 0.09 ug/mg total protein
same,Liver triglyceride,[1]; [2],51.7 ± 14.1 mg/g liver
same,Liver weight,[1]; [2],1307 ± 119 mg
same,Liver-to-body weight ratio,[1]; [2],7.0 ± 0.8%
same,M1/M2 ratio,[1]; [2],125.1 ± 21.9%
same,NAFLD Activity Score (NAS),[1]; [2],3.7 ± 0.8
same,Oil red-positive area (fat deposition area),[1]; [2],7.23 ± 3.59%
same,Plasma ALT,[1]; [2],52 ± 13 U/L
same,Plasma MCP-1,[1]; [2],91 ± 14 pg/mL
same,TUNEL-positive cells,[1]; [2],39.0 ± 5.3%
same,Whole blood glucose,[1]; [2],585 ± 91 mg/dL
same,Sirius red-positive area (fibrosis area),[1]; [2],0.64 ± 0.19%
same,Modified Sirius red-positive rea,[1]; [2],0.20 ± 0.06%
same,"Modified positive area, per mouse","[1]; CVC-high 100 mg/kg/day, Sirius red, individual mice 301-306, listed as Cenicriviroc",0.18% and 0.20% and 0.12% and 0.26% and 0.17% and 0.27%
same,"Modified positive area, per photo","[1]; CVC-high 100 mg/kg/day, Sirius red, individual mice 301-306, photos 1-5, listed as Cenicriviroc",0.26% and 0.06% and 0.10% and 0.41% and 0.09% (2×) and 0.23% (2×) and 0.17% (2×) and 0.28% (2×) and 0.22% (2×) and 0.08% (3×) and 0.05% and 0.32% and 0.07% (3×) and 0.16% and 0.20% (2×) and 0.68% and 0.27% and 0.12% and 0.11% and 0.67%
same,"Hepatocyte ballooning score 0, number of mice","[1]; CVC-high 100 mg/kg/day, n=6",1
same,"Hepatocyte ballooning score 1, number of mice","[1]; CVC-high 100 mg/kg/day, n=6",2
same,"Hepatocyte ballooning score 2, number of mice","[1]; CVC-high 100 mg/kg/day, n=6",3
same,"Lobular inflammation score 1, number of mice","[1]; CVC-high 100 mg/kg/day, n=6",3 (>4 foci/200x)
same,"Lobular inflammation score 2, number of mice","[1]; CVC-high 100 mg/kg/day, n=6",3 (>4 foci/200x)
same,"Steatosis score 0, number of mice","[1]; CVC-high 100 mg/kg/day, n=6",1 (5-33%)
same,"Steatosis score 1, number of mice","[1]; CVC-high 100 mg/kg/day, n=6",5
same,Collagen Type 1 mRNA expression level,[1]; CVC-low 20 mg/kg/day oral,0.63±0.10
same,MCP-1 mRNA expression level,[1]; CVC-low 20 mg/kg/day oral,1.05±0.50
same,TIMP-1 mRNA expression level,[1]; CVC-low 20 mg/kg/day oral,0.75±0.32
same,TNF-a mRNA expression level,[1]; CVC-low 20 mg/kg/day oral,1.16±0.39
same,Collagen Type 1 mRNA expression level,[1]; [3],0.63 ± 0.10
same,MCP-1 mRNA expression level,[1]; [3],1.05 ± 0.50
same,TIMP-1 mRNA expression level,[1]; [3],0.75 ± 0.32
same,TNF-a mRNA expression level,[1]; [3],1.16 ± 0.39
same,Body weight,[1]; CVC-low 20 mg/kg/day oral,19.5 ± 2.0 g
same,F4/80-positive area (inflammation area),[1]; CVC-low 20 mg/kg/day oral,4.77±1.02%
same,F4/80 and CD206-positive cells,[1]; CVC-low 20 mg/kg/day oral,34.7±6.3%
same,F4/80 and CDE 16/32-positive cells,[1]; CVC-low 20 mg/kg/day oral,38.7±7.6%
same,Liver hydroxyproline,[1]; CVC-low 20 mg/kg/day oral,0.63±0.05 ug/mg total protein
same,Liver triglyceride,[1]; CVC-low 20 mg/kg/day oral,48.5±16.1 mg/g liver
same,Liver weight,[1]; CVC-low 20 mg/kg/day oral,1334 ± 99 mg
same,Liver-to-body weight ratio,[1]; CVC-low 20 mg/kg/day oral,6.9±1.0%
same,M1/M2 ratio,[1]; CVC-low 20 mg/kg/day oral,112.3±17.0%
same,NAFLD Activity Score (NAS),[1]; CVC-low 20 mg/kg/day oral,4.0±0.6
same,Oil red-positive area (fat deposition area),[1]; CVC-low 20 mg/kg/day oral,6.51±3.88%
same,Plasma ALT,[1]; CVC-low 20 mg/kg/day oral,58±12 U/L
same,Plasma MCP-1,[1]; CVC-low 20 mg/kg/day oral,68 ± 16 pg/mL
same,TUNEL-positive cells,[1]; CVC-low 20 mg/kg/day oral,43.3±2.9%
same,Whole blood glucose,[1]; CVC-low 20 mg/kg/day oral,585 ± 91 mg/dL
same,Body weight,[1]; [3],19.5 ± 2.0 g
same,F4/80-positive area (inflammation area),[1]; [3],4.77 ± 1.02%
same,F4/80 and CD206-positive cells,[1]; [3],34.7 ± 6.3%
same,F4/80 and CDE 16/32-positive cells,[1]; [3],38.7 ± 7.6%
same,Liver hydroxyproline,[1]; [3],0.63 ± 0.05 ug/mg total protein
same,Liver triglyceride,[1]; [3],48.5 ± 16.1 mg/g liver
same,Liver weight,[1]; [3],1334 ± 99 mg
same,Liver-to-body weight ratio,[1]; [3],6.9 ± 1.0%
same,M1/M2 ratio,[1]; [3],112.3 ± 17.0%
same,NAFLD Activity Score (NAS),[1]; [3],4.0 ± 0.6
same,Oil red-positive area (fat deposition area),[1]; [3],6.51 ± 3.88%
same,Plasma ALT,[1]; [3],58 ± 12 U/L
same,Plasma MCP-1,[1]; [3],68 ± 16 pg/mL
same,TUNEL-positive cells,[1]; [3],43.3 ± 2.9%
same,Whole blood glucose,[1]; [3],585 ± 91 mg/dL
same,Sirius red-positive area (fibrosis area),[1]; [3],0.66 ± 0.16%
same,Modified Sirius red-positive rea,[1]; [3],0.29 ± 0.14%
same,"Hepatocyte ballooning score 1, number of mice","[1]; CVC-low 20 mg/kg/day, n=6",3
same,"Hepatocyte ballooning score 2, number of mice","[1]; CVC-low 20 mg/kg/day, n=6",3
same,"Lobular inflammation score 1, number of mice","[1]; CVC-low 20 mg/kg/day, n=6",3 (>4 foci/200x)
same,"Lobular inflammation score 2, number of mice","[1]; CVC-low 20 mg/kg/day, n=6",3 (>4 foci/200x)
same,"Steatosis score 1, number of mice","[1]; CVC-low 20 mg/kg/day, n=6",6
same,Increase in plasma monocyte chemotactic protein-1 levels,[1]; high dose 100 mg/kg/day,1.5 fold
same,Increase in plasma monocyte chemotactic protein-1 levels,[1]; low dose 20 mg/kg/day,1.1 fold
same,Tolerability,Mouse toxicity studies,well tolerated
same,Tolerability,HIV-1 infected subjects,generally well tolerated; also recorded: effective and well tolerated
